Article PMC6576746, “Rational discovery of dual-indication multi-target PDE/Kinase inhibitor for precision anti-cancer therapy using structural systems pharmacology” (PLoS Computational Biology, 2019)
pEC50, pIC50, pKd: −log10 of the molar value.

Key:
[1] = biological target: T1, RIOK1 (serine/threonine-protein kinase RIOK1) (Homo sapiens, UniProt Q9BRS2); assay: KinomeScan competition binding assay, dose-response; settings: DiscoverX; Hill equation fit
T1 construct: DiscoverX KinomeScan panel kinase

KIT = KIT (Homo sapiens, UniProt P10721); assay: KinomeScan competition binding assay; parameters: DiscoverX KinomeScan panel kinase; settings: 10 μM levosimendan
BV-173 = assay: cells; parameters: species or system panel of human cancer cell lines; Eurofins OncoPanel proliferation; nuclei count by high-content fluorescence imaging, 10-point dose response; settings: Homo sapiens, BV-173, 72 h, cell count, 3 days
Method: (§1) OncoPanel cancer cell proliferation assay was performed by Eurofins Panlabs, Inc. (Missouri, USA). Cancer cells were grown in RPMI 1640, 10% FBS, 2 mM L-alanyl-L-glutamine, 1 mM Na pyruvate, or a special medium. Cells were seeded into 384-well plates and incubated in a humidified atmosphere of 5% CO2 at 37°C. Compounds were added the day following cell seeding. At the same time, a time zero untreated cell plate was generated. After a 3-day incubation period, cells were fixed and stained to allow fluorescence imaging of nuclei. Levosimendan was serially diluted in half-log steps from 100 μM and assayed over 10 concentrations with a maximum assay concentration of 0.1% DMSO. Automated fluorescence microscopy was carried out using a Molecular Devices ImageXpress Micro XL high-content imager, and images were collected with a 4X objective. 16-bit TIFF images were acquired and analyzed with MetaXpress 5.1.0.41 software. Cell count EC50 is the test concentration at the curve inflection point (parameter C), or half the effective response. IC50 is the test compound concentration at 50% of the maximum possible response. GI50 is the concentration needed to reduce the observed growth by half (midway between the relative cell count at the curve maximum and at the time of compound addition). Activity area is an estimate of the integrated area above the response curve. Activity area values range from 0–10, where a value of zero indicates no inhibition of proliferation at all concentrations, and a value of 10 indicates complete inhibition of proliferation at all concentrations.

BT-549 = assay: cells; parameters: species or system panel of human cancer cell lines; Eurofins OncoPanel proliferation; nuclei count by high-content fluorescence imaging, 10-point dose response; settings: Homo sapiens, BT-549, 72 h, cell count, 3 days
Method: as §1

SW480 = assay: cells; parameters: species or system panel of human cancer cell lines; Eurofins OncoPanel proliferation; nuclei count by high-content fluorescence imaging, 10-point dose response; settings: Homo sapiens, SW480, 72 h, cell count, 3 days
Method: as §1

Hs 936.T(C1) = assay: cells; parameters: species or system panel of human cancer cell lines; Eurofins OncoPanel proliferation; nuclei count by high-content fluorescence imaging, 10-point dose response; settings: 72 h, cell count, 3 days
Method: as §1

TE 125.T = assay: cells; parameters: species or system panel of human cancer cell lines; Eurofins OncoPanel proliferation; nuclei count by high-content fluorescence imaging, 10-point dose response; settings: 72 h, cell count, 3 days
Method: as §1

SW1783 = assay: cells; parameters: species or system panel of human cancer cell lines; Eurofins OncoPanel proliferation; nuclei count by high-content fluorescence imaging, 10-point dose response; settings: Homo sapiens, SW1783, 72 h, cell count, 3 days
Method: as §1

RPMI 6666 = assay: cells; parameters: species or system panel of human cancer cell lines; Eurofins OncoPanel proliferation; nuclei count by high-content fluorescence imaging, 10-point dose response; settings: Homo sapiens, RPMI-6666, 72 h, cell count, 3 days
Method: as §1

BPH1 = assay: cells; parameters: species or system panel of human cancer cell lines; Eurofins OncoPanel proliferation; nuclei count by high-content fluorescence imaging, 10-point dose response; settings: Homo sapiens, BPH-1, 72 h, cell count, 3 days
Method: as §1

KLE = assay: cells; parameters: species or system panel of human cancer cell lines; Eurofins OncoPanel proliferation; nuclei count by high-content fluorescence imaging, 10-point dose response; settings: Homo sapiens, KLE, 72 h, cell count, 3 days
Method: as §1

SU-DHL-8 = assay: cells; parameters: species or system panel of human cancer cell lines; Eurofins OncoPanel proliferation; nuclei count by high-content fluorescence imaging, 10-point dose response; settings: Homo sapiens, SU-DHL-8, 72 h, cell count, 3 days
Method: as §1

NCI-H295R = assay: cells; parameters: species or system panel of human cancer cell lines; Eurofins OncoPanel proliferation; nuclei count by high-content fluorescence imaging, 10-point dose response; settings: Homo sapiens, NCI-H295R, 72 h, cell count, 3 days
Method: as §1

SJSA1 = assay: cells; parameters: species or system panel of human cancer cell lines; Eurofins OncoPanel proliferation; nuclei count by high-content fluorescence imaging, 10-point dose response; settings: Homo sapiens, SJSA-1, 72 h, cell count, 3 days
Method: as §1

PIP5K1A = PIP5K1A (Homo sapiens, UniProt Q99755); assay: KinomeScan competition binding assay; parameters: DiscoverX KinomeScan panel kinase; settings: 10 μM levosimendan
FLT3 = biological target: T2, FLT3 (Homo sapiens, UniProt P36888); assay: KinomeScan competition binding assay; settings: 10 μM levosimendan
T2 construct: DiscoverX KinomeScan panel kinase

[2] = 50% of maximum possible response

Chain of KIT (P10721 26-976): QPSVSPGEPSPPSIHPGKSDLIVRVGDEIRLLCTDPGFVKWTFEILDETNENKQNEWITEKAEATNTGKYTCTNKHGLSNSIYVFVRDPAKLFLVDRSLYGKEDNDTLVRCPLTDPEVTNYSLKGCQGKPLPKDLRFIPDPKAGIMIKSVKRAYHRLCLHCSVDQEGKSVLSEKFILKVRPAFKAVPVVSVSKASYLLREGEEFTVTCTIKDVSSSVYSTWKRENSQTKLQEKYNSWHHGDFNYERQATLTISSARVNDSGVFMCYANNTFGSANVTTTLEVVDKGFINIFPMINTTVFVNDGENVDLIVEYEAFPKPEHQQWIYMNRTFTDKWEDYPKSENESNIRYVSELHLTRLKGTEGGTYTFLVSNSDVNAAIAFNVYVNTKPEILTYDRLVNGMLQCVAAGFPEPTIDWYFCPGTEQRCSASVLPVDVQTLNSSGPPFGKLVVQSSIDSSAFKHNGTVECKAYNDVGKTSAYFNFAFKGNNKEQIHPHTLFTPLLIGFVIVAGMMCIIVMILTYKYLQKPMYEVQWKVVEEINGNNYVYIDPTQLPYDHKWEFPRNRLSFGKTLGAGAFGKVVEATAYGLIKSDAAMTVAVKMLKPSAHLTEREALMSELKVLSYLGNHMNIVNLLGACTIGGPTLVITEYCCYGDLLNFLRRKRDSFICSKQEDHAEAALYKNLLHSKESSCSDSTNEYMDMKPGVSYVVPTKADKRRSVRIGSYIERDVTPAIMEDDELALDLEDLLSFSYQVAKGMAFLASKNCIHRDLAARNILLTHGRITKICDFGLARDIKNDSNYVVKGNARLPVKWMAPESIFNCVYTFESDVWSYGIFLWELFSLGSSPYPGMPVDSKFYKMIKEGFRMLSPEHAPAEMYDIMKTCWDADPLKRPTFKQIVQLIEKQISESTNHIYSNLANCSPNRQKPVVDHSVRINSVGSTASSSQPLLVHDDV
Chain of PIP5K1A (Q99755 whole entry): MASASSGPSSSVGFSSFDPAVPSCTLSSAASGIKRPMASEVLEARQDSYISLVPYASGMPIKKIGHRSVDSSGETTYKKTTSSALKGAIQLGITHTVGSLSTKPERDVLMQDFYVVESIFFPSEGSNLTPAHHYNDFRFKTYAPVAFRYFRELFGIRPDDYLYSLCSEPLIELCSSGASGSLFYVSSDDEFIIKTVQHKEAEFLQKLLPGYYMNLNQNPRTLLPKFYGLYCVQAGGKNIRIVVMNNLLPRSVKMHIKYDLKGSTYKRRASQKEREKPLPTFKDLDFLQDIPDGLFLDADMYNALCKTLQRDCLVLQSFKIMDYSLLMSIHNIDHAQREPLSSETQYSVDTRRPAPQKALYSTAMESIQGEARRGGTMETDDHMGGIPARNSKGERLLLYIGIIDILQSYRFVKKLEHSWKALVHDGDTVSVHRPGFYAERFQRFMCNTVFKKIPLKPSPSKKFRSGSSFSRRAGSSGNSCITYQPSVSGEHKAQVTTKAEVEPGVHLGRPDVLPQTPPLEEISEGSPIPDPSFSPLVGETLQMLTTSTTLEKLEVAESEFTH
T2 sequence (P36888 27-993): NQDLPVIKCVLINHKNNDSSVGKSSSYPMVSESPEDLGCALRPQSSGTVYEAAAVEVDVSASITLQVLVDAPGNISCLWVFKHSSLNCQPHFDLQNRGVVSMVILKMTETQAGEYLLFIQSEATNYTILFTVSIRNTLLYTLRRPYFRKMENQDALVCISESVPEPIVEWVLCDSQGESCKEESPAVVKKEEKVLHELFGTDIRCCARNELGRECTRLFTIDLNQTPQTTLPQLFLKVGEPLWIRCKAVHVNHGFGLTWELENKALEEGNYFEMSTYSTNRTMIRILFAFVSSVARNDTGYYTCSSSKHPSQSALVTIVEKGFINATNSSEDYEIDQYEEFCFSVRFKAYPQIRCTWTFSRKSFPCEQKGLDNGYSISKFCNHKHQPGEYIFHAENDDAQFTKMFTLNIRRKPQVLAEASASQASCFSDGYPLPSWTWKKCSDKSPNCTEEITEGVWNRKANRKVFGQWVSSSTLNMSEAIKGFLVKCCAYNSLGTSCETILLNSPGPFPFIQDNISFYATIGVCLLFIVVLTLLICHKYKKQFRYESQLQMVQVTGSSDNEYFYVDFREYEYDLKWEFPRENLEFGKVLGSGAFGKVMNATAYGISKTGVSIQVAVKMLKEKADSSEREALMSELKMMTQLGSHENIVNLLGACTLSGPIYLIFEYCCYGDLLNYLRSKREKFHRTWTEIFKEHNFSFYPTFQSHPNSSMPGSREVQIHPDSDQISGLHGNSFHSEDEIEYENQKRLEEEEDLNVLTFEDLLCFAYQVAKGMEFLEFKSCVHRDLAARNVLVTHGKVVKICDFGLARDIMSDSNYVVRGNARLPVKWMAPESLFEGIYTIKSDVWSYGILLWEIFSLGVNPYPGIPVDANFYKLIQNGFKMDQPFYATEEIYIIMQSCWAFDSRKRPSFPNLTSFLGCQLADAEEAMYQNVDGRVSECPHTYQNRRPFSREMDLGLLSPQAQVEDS
T1 sequence (Q9BRS2 whole entry): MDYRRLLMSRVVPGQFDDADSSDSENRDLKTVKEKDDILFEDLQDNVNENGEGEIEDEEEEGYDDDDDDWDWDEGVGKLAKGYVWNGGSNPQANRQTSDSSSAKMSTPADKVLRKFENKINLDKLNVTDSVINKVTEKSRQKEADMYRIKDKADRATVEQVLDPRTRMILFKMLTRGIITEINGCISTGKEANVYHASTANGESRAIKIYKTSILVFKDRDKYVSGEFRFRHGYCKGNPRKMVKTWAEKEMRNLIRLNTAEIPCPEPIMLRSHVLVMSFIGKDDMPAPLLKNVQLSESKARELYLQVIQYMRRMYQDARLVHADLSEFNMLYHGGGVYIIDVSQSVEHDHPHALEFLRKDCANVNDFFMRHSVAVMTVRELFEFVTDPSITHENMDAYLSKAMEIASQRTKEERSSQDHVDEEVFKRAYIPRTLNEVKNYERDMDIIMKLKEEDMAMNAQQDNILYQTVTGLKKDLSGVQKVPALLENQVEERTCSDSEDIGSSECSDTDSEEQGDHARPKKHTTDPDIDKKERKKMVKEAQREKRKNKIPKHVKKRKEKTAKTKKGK

**Q.** How did the pKd [1] turn out when C[C@@H]1CC(=O)NN=C1c1ccc(NN=C(C#N)C#N)cc1 [levosimendan] was run?
**A.** 6.09

**Q.** And the “percentage control at 10 μM” value (KIT)?
**A.** < 30.0%

**Q.** What about the pIC50 (BV-173; [2]) of the same compound?
**A.** 4.92

**Q.** What about the GI50 (BV-173; corrected for time zero) of the same compound?
**A.** 10.1 µM

**Q.** And the pEC50 (BV-173; curve inflection point)?
**A.** 4.92

**Q.** And the pIC50 (BT-549; [2])?
**A.** 4.81

**Q.** What about the GI50 (BT-549; corrected for time zero) of the same compound?
**A.** 11.3 µM

**Q.** What about the pEC50 (BT-549; curve inflection point) of the same compound?
**A.** 4.90

**Q.** And the pIC50 (SW480; [2])?
**A.** 4.82

**Q.** And the GI50 (SW480; corrected for time zero)?
**A.** 10.8 µM

**Q.** What about the pEC50 (SW480; curve inflection point) of the same compound?
**A.** 4.88

**Q.** What about the pIC50 (Hs 936.T(C1); [2]) of the same compound?
**A.** < 4.00

**Q.** What about the GI50 (Hs 936.T(C1); corrected for time zero) of the same compound?
**A.** > 100 µM

**Q.** What about the pEC50 (Hs 936.T(C1); curve inflection point) of the same compound?
**A.** < 4.00

**Q.** What about the pIC50 (TE 125.T; [2]) of the same compound?
**A.** < 4.00

**Q.** And the GI50 (TE 125.T; corrected for time zero)?
**A.** 71.4 µM

**Q.** What about the pEC50 (TE 125.T; curve inflection point) of the same compound?
**A.** < 4.00

**Q.** And the pIC50 (SW1783; [2])?
**A.** 4.09

**Q.** And the GI50 (SW1783; corrected for time zero)?
**A.** 35.6 µM

**Q.** What about the pEC50 (SW1783; curve inflection point) of the same compound?
**A.** 4.09

**Q.** And the pIC50 (RPMI 6666; [2])?
**A.** 4.76

**Q.** And the GI50 (RPMI 6666; corrected for time zero)?
**A.** 11 µM

**Q.** What about the pEC50 (RPMI 6666; curve inflection point) of the same compound?
**A.** 4.76

**Q.** What about the pIC50 (BPH1; [2]) of the same compound?
**A.** 5.08

**Q.** And the GI50 (BPH1; corrected for time zero)?
**A.** 7.33 µM

**Q.** What about the pEC50 (BPH1; curve inflection point) of the same compound?
**A.** 5.15

**Q.** And the pIC50 (KLE; [2])?
**A.** 4.07

**Q.** And the GI50 (KLE; corrected for time zero)?
**A.** 20.8 µM

**Q.** What about the pEC50 (KLE; curve inflection point) of the same compound?
**A.** 4.53

**Q.** What about the pIC50 (SU-DHL-8; [2]) of the same compound?
**A.** 6.22

**Q.** And the GI50 (SU-DHL-8; corrected for time zero)?
**A.** 512 nM

**Q.** What about the pEC50 (SU-DHL-8; curve inflection point) of the same compound?
**A.** 6.22

**Q.** And the pIC50 (NCI-H295R; [2])?
**A.** 4.04

**Q.** And the GI50 (NCI-H295R; corrected for time zero)?
**A.** 57.1 µM

**Q.** What about the pEC50 (NCI-H295R; curve inflection point) of the same compound?
**A.** 4.04

**Q.** What about the pIC50 (SJSA1; [2]) of the same compound?
**A.** 4.38

**Q.** What about the GI50 (SJSA1; corrected for time zero) of the same compound?
**A.** 18.4 µM

**Q.** And the pEC50 (SJSA1; curve inflection point)?
**A.** 4.38

**Q.** What about the “percentage control at 10 μM” value (PIP5K1A) of the same compound?
**A.** < 30.0%

**Q.** What about the “percentage control at 10 μM” value (FLT3) of the same compound?
**A.** < 30.0%
